Reference: ChEMBL document CHEMBL3991601, “The target landscape of clinical kinase drugs” (Science, 2017)
Activity calls are given as the source filed them. For most assays here, no stated cut-off is given here; in the data, actives have a measured Kd and inactives only a lower limit.

Biological target: Calcium/calmodulin-dependent protein kinase type II subunit delta (Homo sapiens, UniProt Q13557)
Sequence (Q13557 whole entry): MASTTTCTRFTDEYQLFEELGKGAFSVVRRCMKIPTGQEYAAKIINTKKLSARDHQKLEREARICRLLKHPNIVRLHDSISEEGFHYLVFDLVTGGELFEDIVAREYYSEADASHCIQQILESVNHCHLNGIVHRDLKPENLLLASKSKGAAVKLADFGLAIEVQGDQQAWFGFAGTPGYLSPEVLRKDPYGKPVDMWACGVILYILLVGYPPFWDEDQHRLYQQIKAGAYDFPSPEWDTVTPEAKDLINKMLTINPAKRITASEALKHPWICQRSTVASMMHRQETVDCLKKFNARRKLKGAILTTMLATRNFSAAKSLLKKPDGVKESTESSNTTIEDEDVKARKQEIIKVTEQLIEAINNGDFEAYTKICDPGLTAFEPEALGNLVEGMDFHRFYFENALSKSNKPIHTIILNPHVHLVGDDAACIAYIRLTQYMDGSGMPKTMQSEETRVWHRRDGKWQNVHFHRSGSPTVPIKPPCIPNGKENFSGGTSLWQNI

| Structure (SMILES) | Kd |
| --- | --- |
| Cn1ncc(Cl)c1-c1cc(C(=O)N[C@H](CN)Cc2cccc(F)c2)sc1Cl [AFURESERTIB] | > 30 µM (inactive) |
| COc1cc(N2CCC(N3CCN(C)CC3)CC2)ccc1Nc1ncnc(Nc2ccccc2S(=O)(=O)C(C)C)n1 [ASP-3026] | 0.704 µM (active) |
| C[C@@H](Nc1cc(F)cc(F)c1)c1cc(C(=O)N(C)C)cc2c(=O)cc(N3CCOCC3)oc12 [AZD-8186] | > 30 µM (inactive) |
| O=C1NC(=O)/C(=C/c2ccc3nccc(-c4ccncc4)c3c2)S1 [GSK-1059615] | > 30 µM (inactive) |

Biological target: T1, Discoidin domain-containing receptor 2 (Homo sapiens, UniProt Q16832)
T1 sequence (Q16832 whole entry): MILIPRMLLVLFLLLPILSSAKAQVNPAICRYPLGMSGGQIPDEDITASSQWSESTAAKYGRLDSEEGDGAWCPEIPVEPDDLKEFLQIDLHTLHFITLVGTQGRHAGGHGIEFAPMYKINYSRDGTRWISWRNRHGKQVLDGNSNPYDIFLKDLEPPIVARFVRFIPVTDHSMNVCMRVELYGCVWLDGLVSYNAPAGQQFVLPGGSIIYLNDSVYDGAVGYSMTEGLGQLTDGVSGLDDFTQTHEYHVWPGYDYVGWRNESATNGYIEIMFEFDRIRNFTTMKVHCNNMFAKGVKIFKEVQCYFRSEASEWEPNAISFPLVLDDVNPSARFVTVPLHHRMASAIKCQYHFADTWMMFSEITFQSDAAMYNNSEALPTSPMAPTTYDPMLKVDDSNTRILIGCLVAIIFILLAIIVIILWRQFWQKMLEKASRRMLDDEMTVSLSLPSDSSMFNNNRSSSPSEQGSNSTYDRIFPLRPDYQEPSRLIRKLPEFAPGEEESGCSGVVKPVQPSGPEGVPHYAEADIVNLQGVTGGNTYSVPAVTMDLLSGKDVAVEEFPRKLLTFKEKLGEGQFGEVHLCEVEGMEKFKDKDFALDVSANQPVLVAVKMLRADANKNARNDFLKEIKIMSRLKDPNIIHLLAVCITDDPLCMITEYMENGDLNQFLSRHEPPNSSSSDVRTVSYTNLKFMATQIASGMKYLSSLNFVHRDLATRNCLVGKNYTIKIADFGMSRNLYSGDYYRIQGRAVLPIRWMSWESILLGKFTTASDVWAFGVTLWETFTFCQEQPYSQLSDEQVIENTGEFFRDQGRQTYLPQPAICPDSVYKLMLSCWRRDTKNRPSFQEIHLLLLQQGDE

| Structure (SMILES) | Kd |
| --- | --- |
| Cn1ncc(Cl)c1-c1cc(C(=O)N[C@H](CN)Cc2cccc(F)c2)sc1Cl [AFURESERTIB] | > 30 µM (inactive) |
| COc1cc(N2CCC(N3CCN(C)CC3)CC2)ccc1Nc1ncnc(Nc2ccccc2S(=O)(=O)C(C)C)n1 [ASP-3026] | > 30 µM (inactive) |
| C[C@@H](Nc1cc(F)cc(F)c1)c1cc(C(=O)N(C)C)cc2c(=O)cc(N3CCOCC3)oc12 [AZD-8186] | > 30 µM (inactive) |
| O=C1NC(=O)/C(=C/c2ccc3nccc(-c4ccncc4)c3c2)S1 [GSK-1059615] | > 30 µM (inactive) |

Biological target: Casein kinase I isoform alpha (Homo sapiens, UniProt P48729)
Sequence (P48729 whole entry, canonical isoform): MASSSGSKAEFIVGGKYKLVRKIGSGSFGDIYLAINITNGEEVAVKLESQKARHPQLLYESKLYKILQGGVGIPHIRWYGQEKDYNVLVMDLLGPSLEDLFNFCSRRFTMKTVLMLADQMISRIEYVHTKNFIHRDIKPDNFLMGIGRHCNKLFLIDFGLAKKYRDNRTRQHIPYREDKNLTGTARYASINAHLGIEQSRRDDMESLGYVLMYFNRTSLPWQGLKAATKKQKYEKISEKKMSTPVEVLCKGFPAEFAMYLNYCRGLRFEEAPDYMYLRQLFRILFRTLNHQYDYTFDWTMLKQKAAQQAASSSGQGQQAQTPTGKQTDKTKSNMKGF

| Structure (SMILES) | Kd |
| --- | --- |
| Cn1ncc(Cl)c1-c1cc(C(=O)N[C@H](CN)Cc2cccc(F)c2)sc1Cl [AFURESERTIB] | > 30 µM (inactive) |
| COc1cc(N2CCC(N3CCN(C)CC3)CC2)ccc1Nc1ncnc(Nc2ccccc2S(=O)(=O)C(C)C)n1 [ASP-3026] | > 30 µM (inactive) |
| C[C@@H](Nc1cc(F)cc(F)c1)c1cc(C(=O)N(C)C)cc2c(=O)cc(N3CCOCC3)oc12 [AZD-8186] | > 30 µM (inactive) |
| O=C1NC(=O)/C(=C/c2ccc3nccc(-c4ccncc4)c3c2)S1 [GSK-1059615] | > 30 µM (inactive) |

Biological target: T2, Serine/threonine-protein kinase TAO3 (Homo sapiens, UniProt Q9H2K8)
T2 sequence (Q9H2K8 whole entry): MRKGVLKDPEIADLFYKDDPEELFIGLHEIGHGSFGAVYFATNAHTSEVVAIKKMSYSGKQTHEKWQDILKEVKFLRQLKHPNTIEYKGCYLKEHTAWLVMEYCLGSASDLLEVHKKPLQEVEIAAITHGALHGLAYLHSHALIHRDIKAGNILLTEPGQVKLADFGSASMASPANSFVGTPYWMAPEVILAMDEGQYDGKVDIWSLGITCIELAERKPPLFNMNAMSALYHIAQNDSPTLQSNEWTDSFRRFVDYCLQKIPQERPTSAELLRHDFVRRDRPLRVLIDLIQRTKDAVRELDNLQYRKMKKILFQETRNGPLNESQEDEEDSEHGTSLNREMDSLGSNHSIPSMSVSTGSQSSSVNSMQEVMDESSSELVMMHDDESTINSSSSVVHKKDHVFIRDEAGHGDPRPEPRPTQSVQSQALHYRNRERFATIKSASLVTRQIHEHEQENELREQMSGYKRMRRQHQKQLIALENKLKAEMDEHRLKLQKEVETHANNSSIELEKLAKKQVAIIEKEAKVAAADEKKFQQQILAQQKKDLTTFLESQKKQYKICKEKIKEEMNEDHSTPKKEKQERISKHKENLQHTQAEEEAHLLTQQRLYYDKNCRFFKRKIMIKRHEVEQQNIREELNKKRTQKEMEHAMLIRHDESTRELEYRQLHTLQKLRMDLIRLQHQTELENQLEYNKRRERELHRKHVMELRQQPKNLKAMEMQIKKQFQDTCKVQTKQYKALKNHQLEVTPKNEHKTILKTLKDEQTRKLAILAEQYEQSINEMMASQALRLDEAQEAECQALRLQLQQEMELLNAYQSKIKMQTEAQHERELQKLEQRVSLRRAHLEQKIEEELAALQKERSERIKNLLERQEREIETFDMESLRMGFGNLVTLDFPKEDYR

| Structure (SMILES) | Kd |
| --- | --- |
| Cn1ncc(Cl)c1-c1cc(C(=O)N[C@H](CN)Cc2cccc(F)c2)sc1Cl [AFURESERTIB] | > 30 µM (inactive) |
| COc1cc(N2CCC(N3CCN(C)CC3)CC2)ccc1Nc1ncnc(Nc2ccccc2S(=O)(=O)C(C)C)n1 [ASP-3026] | > 30 µM (inactive) |
| C[C@@H](Nc1cc(F)cc(F)c1)c1cc(C(=O)N(C)C)cc2c(=O)cc(N3CCOCC3)oc12 [AZD-8186] | > 30 µM (inactive) |
| O=C1NC(=O)/C(=C/c2ccc3nccc(-c4ccncc4)c3c2)S1 [GSK-1059615] | > 30 µM (inactive) |

Biological target: Ribosomal protein S6 kinase alpha-6 (Homo sapiens, UniProt Q9UK32)
Sequence (Q9UK32 whole entry): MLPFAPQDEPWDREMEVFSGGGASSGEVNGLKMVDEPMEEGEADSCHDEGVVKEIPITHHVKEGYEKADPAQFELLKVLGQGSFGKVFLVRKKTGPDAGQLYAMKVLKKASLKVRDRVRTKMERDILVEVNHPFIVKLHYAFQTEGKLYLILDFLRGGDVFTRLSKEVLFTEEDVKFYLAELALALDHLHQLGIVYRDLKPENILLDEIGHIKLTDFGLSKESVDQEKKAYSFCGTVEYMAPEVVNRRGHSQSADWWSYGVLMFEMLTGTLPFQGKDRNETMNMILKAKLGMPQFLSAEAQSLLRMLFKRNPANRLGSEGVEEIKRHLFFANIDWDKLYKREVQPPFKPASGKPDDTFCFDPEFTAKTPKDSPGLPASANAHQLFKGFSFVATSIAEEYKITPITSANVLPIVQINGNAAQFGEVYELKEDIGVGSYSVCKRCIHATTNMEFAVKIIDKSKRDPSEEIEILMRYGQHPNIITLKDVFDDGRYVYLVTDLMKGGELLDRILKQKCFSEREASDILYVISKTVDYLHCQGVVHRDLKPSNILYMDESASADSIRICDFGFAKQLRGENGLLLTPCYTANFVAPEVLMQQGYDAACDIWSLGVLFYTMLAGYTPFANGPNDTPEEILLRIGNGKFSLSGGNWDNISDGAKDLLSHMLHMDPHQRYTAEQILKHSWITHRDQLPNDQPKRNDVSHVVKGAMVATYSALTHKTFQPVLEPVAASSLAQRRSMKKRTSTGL

| Structure (SMILES) | Kd |
| --- | --- |
| Cn1ncc(Cl)c1-c1cc(C(=O)N[C@H](CN)Cc2cccc(F)c2)sc1Cl [AFURESERTIB] | > 30 µM (inactive) |
| COc1cc(N2CCC(N3CCN(C)CC3)CC2)ccc1Nc1ncnc(Nc2ccccc2S(=O)(=O)C(C)C)n1 [ASP-3026] | > 30 µM (inactive) |
| C[C@@H](Nc1cc(F)cc(F)c1)c1cc(C(=O)N(C)C)cc2c(=O)cc(N3CCOCC3)oc12 [AZD-8186] | > 30 µM (inactive) |
| O=C1NC(=O)/C(=C/c2ccc3nccc(-c4ccncc4)c3c2)S1 [GSK-1059615] | > 30 µM (inactive) |

Biological target: Casein kinase I isoform gamma-1 (Homo sapiens, UniProt Q9HCP0)
Sequence (Q9HCP0 whole entry, canonical isoform): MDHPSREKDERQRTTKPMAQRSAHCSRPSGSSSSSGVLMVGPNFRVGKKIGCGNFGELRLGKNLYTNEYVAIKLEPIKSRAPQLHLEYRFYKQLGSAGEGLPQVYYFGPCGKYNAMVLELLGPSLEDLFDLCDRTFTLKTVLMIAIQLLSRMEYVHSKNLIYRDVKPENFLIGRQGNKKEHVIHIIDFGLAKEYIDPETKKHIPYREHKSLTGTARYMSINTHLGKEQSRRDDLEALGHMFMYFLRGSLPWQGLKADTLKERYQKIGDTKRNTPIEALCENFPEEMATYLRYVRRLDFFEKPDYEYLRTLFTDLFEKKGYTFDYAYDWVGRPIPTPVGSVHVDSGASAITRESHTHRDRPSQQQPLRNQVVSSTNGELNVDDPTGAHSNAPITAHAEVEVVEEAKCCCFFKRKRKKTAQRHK

| Structure (SMILES) | Kd |
| --- | --- |
| Cn1ncc(Cl)c1-c1cc(C(=O)N[C@H](CN)Cc2cccc(F)c2)sc1Cl [AFURESERTIB] | > 30 µM (inactive) |
| COc1cc(N2CCC(N3CCN(C)CC3)CC2)ccc1Nc1ncnc(Nc2ccccc2S(=O)(=O)C(C)C)n1 [ASP-3026] | > 30 µM (inactive) |
| C[C@@H](Nc1cc(F)cc(F)c1)c1cc(C(=O)N(C)C)cc2c(=O)cc(N3CCOCC3)oc12 [AZD-8186] | > 30 µM (inactive) |
| O=C1NC(=O)/C(=C/c2ccc3nccc(-c4ccncc4)c3c2)S1 [GSK-1059615] | 17.5 µM (active) |

Biological target: Glycogen synthase kinase-3 alpha (Homo sapiens, UniProt P49840)
Sequence (P49840 whole entry): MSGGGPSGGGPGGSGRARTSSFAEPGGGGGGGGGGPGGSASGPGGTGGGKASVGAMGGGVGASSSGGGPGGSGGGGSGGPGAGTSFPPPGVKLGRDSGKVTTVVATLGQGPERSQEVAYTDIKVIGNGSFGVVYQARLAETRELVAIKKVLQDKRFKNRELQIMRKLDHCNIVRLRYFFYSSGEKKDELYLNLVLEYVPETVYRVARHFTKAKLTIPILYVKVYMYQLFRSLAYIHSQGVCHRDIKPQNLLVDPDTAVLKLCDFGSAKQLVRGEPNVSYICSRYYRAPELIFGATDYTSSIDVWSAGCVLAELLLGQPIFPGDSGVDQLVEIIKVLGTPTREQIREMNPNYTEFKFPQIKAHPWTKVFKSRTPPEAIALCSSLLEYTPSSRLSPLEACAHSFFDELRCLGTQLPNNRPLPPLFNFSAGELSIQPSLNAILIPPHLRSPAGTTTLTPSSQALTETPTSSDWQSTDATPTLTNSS

| Structure (SMILES) | Kd |
| --- | --- |
| Cn1ncc(Cl)c1-c1cc(C(=O)N[C@H](CN)Cc2cccc(F)c2)sc1Cl [AFURESERTIB] | > 30 µM (inactive) |
| COc1cc(N2CCC(N3CCN(C)CC3)CC2)ccc1Nc1ncnc(Nc2ccccc2S(=O)(=O)C(C)C)n1 [ASP-3026] | > 30 µM (inactive) |
| C[C@@H](Nc1cc(F)cc(F)c1)c1cc(C(=O)N(C)C)cc2c(=O)cc(N3CCOCC3)oc12 [AZD-8186] | > 30 µM (inactive) |
| O=C1NC(=O)/C(=C/c2ccc3nccc(-c4ccncc4)c3c2)S1 [GSK-1059615] | > 30 µM (inactive) |

Biological target: T3, dCTP pyrophosphatase 1 (Homo sapiens, UniProt Q9H773)
T3 sequence (Q9H773 whole entry): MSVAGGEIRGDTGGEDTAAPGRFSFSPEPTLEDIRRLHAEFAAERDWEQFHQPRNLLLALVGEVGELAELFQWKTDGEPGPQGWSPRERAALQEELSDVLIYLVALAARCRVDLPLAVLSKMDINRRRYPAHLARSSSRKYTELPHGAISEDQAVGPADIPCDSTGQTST

| Structure (SMILES) | Kd |
| --- | --- |
| Cn1ncc(Cl)c1-c1cc(C(=O)N[C@H](CN)Cc2cccc(F)c2)sc1Cl [AFURESERTIB] | > 30 µM (inactive) |
| COc1cc(N2CCC(N3CCN(C)CC3)CC2)ccc1Nc1ncnc(Nc2ccccc2S(=O)(=O)C(C)C)n1 [ASP-3026] | > 30 µM (inactive) |
| C[C@@H](Nc1cc(F)cc(F)c1)c1cc(C(=O)N(C)C)cc2c(=O)cc(N3CCOCC3)oc12 [AZD-8186] | > 30 µM (inactive) |
| O=C1NC(=O)/C(=C/c2ccc3nccc(-c4ccncc4)c3c2)S1 [GSK-1059615] | > 30 µM (inactive) |
